System: T1, pPPO (purified kudzu polyphenol oxidase)
T1 construct: gene PPO; single prominent SDS-PAGE band approx. 21 kDa
Assay: UV-visible spectrophotometry at […] nm, Lineweaver-Burk
Type: biochemical, Pueraria montana var. lobata
Conditions: catechol oxidation; activity assay in McIlvaine buffer pH 5.0, 25 °C

`Oc1ccccc1O` [catechol] showed a Km of 23.5 mM.

Reference: PMC8226850, “Thermal Inactivation Kinetics of Kudzu (Pueraria lobata) Polyphenol Oxidase and the Influence of Food Constituents” (Foods, 2021)
